In US6638974B1, “Ascorbyl esters for the treatment of cancer” (University of South Florida, priority 1999, dated 2003):
Where two headings read alike, the source gives them in different places.

How the values were obtained:
[1] = test system: HT29 cells; assay: MTT cell viability assay, HT29; assay type: cell-based, human; settings: for inhibition at 150 µM: Homo sapiens, HT-29, 150 μM (5 FU at a similar concentration), read-out: inhibition of HT29 cell growth (MTT); for effect on HT29 cells (MTT): similar concentrations and incubation times as As-P (24 and 48 hours)
Experimental: (§1) HT-29, a human colon adenocarcinoma cell line, and CCD 18, a normal colon fibroblast, were obtained from the American Type Culture Collection (Rockville, Md.). The cells were grown in RPM1 1640 medium containing HEPES (20 mM), fetal bovine serum (10%), sodium bicarbonate (1 g/L), and penicillin (10 U/ml), streptomycin (10 ug/ml) at 37° C. in 5% CO2 humidified atmosphere.
(§2) The effect of various concentrations of As-P, ascorbate, palmitate or 5-fluorouracil (5 FU) on the viability and/or proliferation of HT29 or CCD 18 cells were evaluated. Cells were seeded in 96-well culture plates at 1×10^4 cells/well. The following day, As-P, ascorbate, palmitate or 5 FU were added at various concentrations. Cell viability was evaluated by the MTT assay 24 hours or 48 hours after the addition of the compounds. The effect of As-P on the cell cycle of HT29 cells was also investigated by flow cytometry.

[2] = test system: Advanced colon cancer; settings: single agent; cited from earlier work
[3] = test system: CCD 18 cells; assay: MTT cell viability assay, CCD 18; assay type: cell-based, human; settings: for inhibition at 150 µM: Homo sapiens, Fibroblast, read-out: inhibitory effect on CCD 18 fibroblasts (MTT); for effect on CCD18 fibroblasts (MTT): similar concentrations and incubation times as As-P (24 and 48 hours)
Experimental: as §1, §2

[4] = test system: HT29 cells; assay: Cell cycle analysis by flow cytometry, HT29; assay type: cell-based, human; settings: 24 hours
Experimental: HT29 cells were seeded into 25 cm^2 flasks at a density of 1×10^4 cells/ml. 72 hours after seeding, As-P was added to HT29 cells in culture at a final concentration of 50 μM, 100 μM, 150 μM. Control cells received medium only. After 24 hours of incubation, cells were harvested and processed for flow cytometry DNA analysis.

O=c1[nH]cc(F)c(=O)[nH]1 [5 FU, 5-Fluorouracil, reference compound]
effect on growth of HT29 cells at 24 hours ([1]; 24 hours): little or no inhibitory effect | inhibition of growth of HT29 cells at 48 hours ([1]; 48 hours, concentration not given): approximately 40% | inhibition at 150 µM ([1]; 24 hours): 14% | inhibition at 150 µM ([1]; 48 hours): 40% | response rate [2]: 10-20% | effect on growth of CCD 18 fibroblasts at 24 hours ([3]; 24 hours): little or no inhibitory effect | effect on CCD 18 cells at 48 hours ([3]; 48 hours): little effect

CCCCCCCCCCCCCCCC(=O)OC[C@H](O)[C@H]1OC(=O)C(O)=C1O [As-P, L-Ascorbyl 6-palmitate]
inhibition at 150 µM ([1]; 24 hours): 73% | inhibition at 150 µM ([1]; 48 hours): 89% | effect on HT29 cells at higher concentrations ([1]; above 100 μM): cytotoxic effect | effect on HT29 cell growth at lower concentrations ([1]; below 100 μM): stimulatory effect | effect on HT29 cell growth ([1]; higher concentrations (>125 μM)): great inhibitory effect | effect on HT29 cell growth ([1]; lower concentrations (<75 μM)): slight stimulating effect | % G2 + M ([4]; HT29, 50 μM As-P): 7.8% | % G4/G1 ([4]; HT29, 50 μM As-P): 57.1% | % S ([4]; HT29, 50 μM As-P): 35.1% | % G2 + M ([4]; HT29, 100 μM As-P): 4.3% | % G4/G1 ([4]; HT29, 100 μM As-P): 73.1% | % S ([4]; HT29, 100 μM As-P): 22.6% | % G2 + M ([4]; HT29, 150 μM As-P): 3.2% | % G4/G1 ([4]; HT29, 150 μM As-P): 86.1% | % S ([4]; HT29, 150 μM As-P): 10.7% | inhibition at 150 µM ([3]; 24 hours): ~20% | inhibition at 150 µM ([3]; 48 hours): ~20% | effect on CCD 18 fibroblasts at lower concentrations ([3]; lower concentrations): stimulatory effect

O=C1O[C@H]([C@@H](O)CO)C(O)=C1O [ascorbate, reference compound]
effect on HT29 cells (MTT) [1]: no inhibitory effect | effect on CCD18 fibroblasts (MTT) [3]: no inhibitory effect

CCCCCCCCCCCCCCCC(=O)O [palmitate, reference compound]
effect on HT29 cells (MTT) [1]: no inhibitory effect | effect on CCD18 fibroblasts (MTT) [3]: no inhibitory effect
